Measurements published in US8415321B2, “Nucleoside derivatives for treatment of Caliciviridae infections, including Norovirus infections” (priority 2008, dated 2013).

Test system: Norwalk GI.1 replicon
Test: Norwalk GI.1 replicon assay (in vitro anti-viral activity)
Format: cell-based
Settings: Norovirus
From the text: The Norwalk GI.1 strain (Chang, K. O., et al. (2006) Virology 353:463-473), the GII-4 strain replicon, as well other Norovirus replicons can be used in assays to determine the in vitro antiviral activity of the compounds described herein, or other compounds or compound libraries. In some embodiments, the replicon systems are subgenomic and therefore allow evaluation of small molecule inhibitors of non-structural proteins. This can provide the same benefits to Norovirus drug discovery that Hepatitis C replicons contributed to the discovery of therapeutics useful for treatment of that virus (Stuyver, L. J., et al. (2006) Antimicrob. Agents Chemother. 47:244-254).

Structure (SMILES): CC1(O)C(O)[C@@H](CO)O[C@H]1n1ccc(N)nc1=O (some centres unmarked) [2′-C-methyl-cytosine]
- EC50: 2.1 µM
- EC90: 8.9 µM
